Laboratory results from patent publication US11891360B2, “Glycosylated psilocybin derivatives and methods of using” (Enveric Biosciences Canada Inc., priority 2020, dated 2024).

Key:
[1] = molecular target: 5-HT2A receptor (Homo sapiens, UniProt P28223); assay: Calcium mobilization (Fluo-8) assay in CHO-K1 cells stably expressing 5-HT2A (+5-HT2A); assay type: cell-based
Method: Briefly, vials with cells were removed from the liquid nitrogen and thawed quickly in 37° C. water bath.

[2] = system: CHO-K1/Galpha15 cells (−5-HT2A); assay: Calcium mobilization (Fluo-8) assay in control cells lacking 5-HT2A (−5-HT2A); assay type: cell-based, Chinese Hamster; conditions: CHO-K1/Galpha15 control cells lacking 5-HT2A
From the text: Cell lines for pharmacology assays. CHO-K1/Galpha15 (GenScript, M00257) (−5-HT2A) and CHO-K1/5-HT2A (GenScript, M00250) (+5-HT2A) cells lines were used in both toxicology/growth inhibition (MTT) and calcium release assays. Briefly, CHO-K1/Galpha15 is a control cell line that constitutively expresses Galpha15 which is a promiscuous Gq protein. It is engineered as a host cell, allowing transfected receptor(s) to signal through the Gq signal transduction pathway and mobilize intracellular calcium from the endoplasmic reticulum (ER). These control cells lack any transgene encoding 5-HT2A receptors, thus preventing calcium mobilization in response to 5-HT2A activation. Conversely, CHO-K1/5-HT2A cells stably express 5-HT2A receptor in the CHO-K1 host background. This design enables Gq-11 expressed in CHO-K1 cells to mobilize intracellular calcium changes when 5-HT2A receptors are activated by ligands.
Cell lines were maintained in Ham's F12 media plus 10% FBS in the presence of 100 ug/ml hygromycin for CHO-K1/Ga15 or 400 ug/ml G418 for CHO-K1/5-HT2A unless indicated otherwise for specific assays. Cell maintenance was carried out as recommended by the cell supplier. Briefly, vials with cells were removed from the liquid nitrogen and thawed quickly in 37° C. water bath. […]
Increase in cytosolic calcium concentration by 5-HT2A activation. Changes in intracellular calcium concentration due to the treatment with assay compounds was measured using Fluo-8 dye (Abcam, #ab112129) according to the manufacturer's instructions. […] Fluorescence (ex 490 nm/em 525 nm) obtained after the addition of molecules was expressed relative to values obtained before addition of the molecules (relative Fluo-8 fluorescence=Fmax/F0, where Fmax=maximum fluorescence and F0=baseline fluorescence). Fluorescence intensities were measured using a Spectramax ID3 plate reader (www.moleculardevices.com). Relative fluorescence (RFU) was plotted with respected to time (seconds) illustrating time-dependent calcium flux. […] The Example compound (Ill) was then evaluated.

5-HT2A receptor, sequence (P28223 whole entry): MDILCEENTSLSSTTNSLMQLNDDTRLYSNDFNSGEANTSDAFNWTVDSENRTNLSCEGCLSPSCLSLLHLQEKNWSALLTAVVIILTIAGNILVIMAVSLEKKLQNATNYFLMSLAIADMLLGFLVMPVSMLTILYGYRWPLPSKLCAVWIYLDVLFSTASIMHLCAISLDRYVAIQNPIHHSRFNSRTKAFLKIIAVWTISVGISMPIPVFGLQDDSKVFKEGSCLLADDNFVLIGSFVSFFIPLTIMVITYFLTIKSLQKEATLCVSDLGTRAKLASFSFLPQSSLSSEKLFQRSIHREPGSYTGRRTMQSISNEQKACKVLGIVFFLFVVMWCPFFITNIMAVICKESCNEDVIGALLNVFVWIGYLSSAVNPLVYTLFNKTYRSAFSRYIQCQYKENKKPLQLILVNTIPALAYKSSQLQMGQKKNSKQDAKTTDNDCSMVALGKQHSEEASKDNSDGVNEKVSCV

Compound | dose dependence of calcium flux response ([1]; +5-HT2A cells, 0.001-100 μM) | calcium flux response in −5-HT2A cells [2] | time to peak of intracellular calcium flux ([1]; +5-HT2A cells, 0.001-100 μM, relative Fluo-8 fluorescence vs time) | EC50 ([1]; CHO-K1/5-HT2A (+5-HT2A) cells, four parameter logistic curve fitting, GraphPad Prism, read-out: EC50 of relative Fluo-8 fluorescence (calcium mobilization))
CN(C)CCc1c[nH]c2cccc(O)c12 [psilocin, reference compound] | response increased with dosage | did not exhibit a response |  | 
NCCc1c[nH]c2cccc(O[C@@H]3OC(CO)[C@H](O)C(O)C3O)c12 (stereo partly drawn) [V, 4-O-β-D-galactopyranosyltryptamine] | response increased with dosage | did not exhibit a response | under 60 seconds | 
NCCc1c[nH]c2cccc(O[C@@H]3OC(CO)[C@@H](O)C(O)C3O)c12 (stereo partly drawn) [III, 4-O-β-D-glucopyranosyltryptamine] | response increased with dosage | did not exhibit a response |  | 
CN(C)CCc1c[nH]c2cccc(O[C@@H]3OC(CO)[C@H](O)C(O)C3O)c12 (stereo partly drawn) [VI, N,N-dimethyl-4-O-β-D-galactopyranosyltryptamine] |  |  |  | 3.81 µM
